Test results reported in US20220235057A1, “CYCLIC FORMYL AND CYCLIC KETONE COMPOUNDS, PREPARATION METHOD THEREFOR, AND PHARMACEUTICAL USE” (priority 2019, published 2022).
In brackets after ≈: the same amount, converted by molar mass.

Experiments:
Assay type in all cases: cell-based
[1] = tested on: dengue virus (DENV); assay: anti-dengue virus activity (EC50)
[2] = tested on: drug resistant strains of Acinetobacter baumannii; assay: anti-drug resistant strains of Acinetobacter baumannii (MIC)
[3] = tested on: Zika virus; assay: anti-Zika virus activity (EC50)
[4] = tested on: Zika virus (ZIKV); assay: anti-Zika virus activity (inhibition rate); conditions: for inhibition at 11 µM / inhibition at 33 µM: Zika virus
[5] = tested on: Usutu virus (USUV); assay: anti-Usutu virus activity (inhibition rate); conditions: for inhibition at 11 µM / inhibition at 33 µM: Usutu virus
[6] = resistant strain of Acinetobacter baumannii no. 17
[7] = resistant strain of Acinetobacter baumannii no. 18
[8] = resistant strain of Acinetobacter baumannii no. 19
[9] = resistant strain of Acinetobacter baumannii no. 20

| SMILES | EC50 [1] [nM] | MIC [2, 6] [µg/mL] | MIC [2, 7] [µg/mL] | MIC [2, 8] [µg/mL] | MIC [2, 9] [µg/mL] | further results |
| --- | --- | --- | --- | --- | --- | --- |
| O=C1C2CCCCN2C(c2ccco2)N1c1ccc([N+](=O)[O-])cc1 (stereo not drawn) [ZBJ-12A] | 1200 | – | – | – | – | – |
| O=C(NNc1ccc(F)cc1)[C@@H]1Cc2ccccc2N1 [ZBM-5] | – | 2 (≈ 7.37 µM) | 2 (≈ 7.37 µM) | 1 (≈ 3.69 µM) | 2 (≈ 7.37 µM) | – |
| O=C(NNc1ccc(OCc2ccccc2)cc1)[C@@H]1Cc2ccccc2N1 [ZBM-6] | – | 2 (≈ 5.56 µM) | 4 (≈ 11.1 µM) | 2 (≈ 5.56 µM) | 4 (≈ 11.1 µM) | – |
| Nc1ccc(NNC(=O)[C@@H]2Cc3ccccc3N2)cc1 [ZBM-8] | – | 2 (≈ 7.45 µM) | 4 (≈ 14.9 µM) | 2 (≈ 7.45 µM) | 4 (≈ 14.9 µM) | – |
| O=C(NNc1ccc(F)cc1)C1CNc2ccccc21 (stereo not drawn) [ZBM-11] | – | 1 (≈ 3.69 µM) | 2 (≈ 7.37 µM) | 1 (≈ 3.69 µM) | 1 (≈ 3.69 µM) | – |
| O=C(NNc1ccc(F)cc1)[C@H]1CCNC1 [ZBM-19] | – | 2 (≈ 8.96 µM) | 2 (≈ 8.96 µM) | 2 (≈ 8.96 µM) | 1 (≈ 4.48 µM) | – |
| O=C(NNc1ccc(F)cc1)c1c[nH]c2ccccc12 [ZBM-20] | – | 0.5 (≈ 1.86 µM) | 1 (≈ 3.71 µM) | 0.5 (≈ 1.86 µM) | 0.5 (≈ 1.86 µM) | – |
| O=C(NNc1ccc(F)cc1)c1ccc[nH]1 [ZBM-21] | – | 0.5 (≈ 2.28 µM) | 0.5 (≈ 2.28 µM) | 0.5 (≈ 2.28 µM) | 0.5 (≈ 2.28 µM) | – |
| COc1ccc([C@H]2N(Nc3ccc([N+](=O)[O-])cc3)C(=O)[C@@H]3Cc4ccccc4N32)cc1OC [ZDL-89] | 11600 | – | – | – | – | – |
| COc1ccc([C@H]2N(Nc3ccc([N+](=O)[O-])cc3)C(=O)[C@@H]3Cc4ccccc4N32)cc1O[Si](C)(C)C(C)(C)C [ZDL-93] | 24800 | – | – | – | – | – |
| O=C(NNc1ccccc1)[C@@H]1Cc2ccccc2N1 [ZDL-101] | – | 4 (≈ 15.8 µM) | 4 (≈ 15.8 µM) | 4 (≈ 15.8 µM) | 2 (≈ 7.9 µM) | – |
| COc1ccc(C2c3c([nH]c4ccccc34)C(=O)N2Nc2ccc([N+](=O)[O-])cc2)cc1OC (stereo not drawn) [ZFD-33A + B] | – | – | – | – | – | EC50 [3]: 17200 nM |
| O=C(NNc1ccccc1)c1c[nH]c2ccccc12 [ZFD-38] | – | 8 (≈ 31.8 µM) | 8 (≈ 31.8 µM) | 8 (≈ 31.8 µM) | 4 (≈ 15.9 µM) | – |
| O=C(NNc1ccccc1)c1ccc[nH]1 [ZFD-42] | – | 4 (≈ 19.9 µM) | 4 (≈ 19.9 µM) | 4 (≈ 19.9 µM) | 1 (≈ 4.97 µM) | – |
| O=C(NNc1ccc(F)cc1)c1cc2ccccc2[nH]1 [ZFD-44] | – | 0.5 (≈ 1.86 µM) | 1 (≈ 3.71 µM) | 1 (≈ 3.71 µM) | 1 (≈ 3.71 µM) | – |
| O=C(NNc1ccccc1)[C@@H]1Cc2ccccc2CN1 [ZSD-16] | – | 2 (≈ 7.48 µM) | 8 (≈ 29.9 µM) | 4 (≈ 15 µM) | 4 (≈ 15 µM) | – |
| O=C1C2Cc3ccccc3CN2C(c2ccco2)N1Nc1ccccc1 (stereo not drawn) [ZSD-28B] | – | > 64 | 8 (≈ 23.2 µM) | 8 (≈ 23.2 µM) | 8 (≈ 23.2 µM) | – |
| O=C(NNc1ccccc1)C1CCCCN1 (stereo not drawn) [ZXD-2-1] | – | 4 (≈ 18.2 µM) | 4 (≈ 18.2 µM) | 8 (≈ 36.5 µM) | 4 (≈ 18.2 µM) | – |
| O=C(NNc1ccccc1)C1CCc2ccccc2N1 (stereo not drawn) [ZXD-44] | 1500 | 4 (≈ 15 µM) | 8 (≈ 29.9 µM) | 8 (≈ 29.9 µM) | 2 (≈ 7.48 µM) | – |
| O=C(NNc1ccc([N+](=O)[O-])cc1)C1CCc2ccccc2N1 (stereo not drawn) [ZXD-45] | 310 | – | – | – | – | – |
| O=C1[C@@H]2CCc3ccccc3N2[C@@H](c2ccc([N+](=O)[O-])cc2)N1Nc1ccc([N+](=O)[O-])cc1 [ZXD-78A] | 170 | – | – | – | – | – |
| O=C1[C@H]2CCc3ccccc3N2C(c2ccc(O)cc2)N1Nc1ccccc1 (stereo partly drawn) [ZXD-86A] | – | – | – | – | – | inhibition at 11 µM ([4]; Drug concentration 11 μM): < 0%; inhibition at 33 µM ([4]; Drug concentration 33 μM): > 100%; inhibition at 11 µM ([5]; Drug concentration 11 μM): < 0%; inhibition at 33 µM ([5]; Drug concentration 33 μM): < 0% |

| SMILES | EC50 [1] [nM] | MIC [2, 6] [µg/mL] | MIC [2, 7] [µg/mL] | MIC [2, 8] [µg/mL] | MIC [2, 9] [µg/mL] | further results |
| --- | --- | --- | --- | --- | --- | --- |
| O=C1C2CCc3ccccc3N2C(c2ccc(Cl)cc2)N1Nc1ccccc1 (stereo not drawn) [ZXD-87A] | – | – | – | – | – | EC50 [3]: 3400 ± 380 nM |
| C=C(C)c1ccc(C2N(Nc3ccccc3)C(=O)C3CCc4ccccc4N32)cc1 (stereo not drawn) [ZXD-89A] | 740 | – | – | – | – | – |
| O=C1[C@@H]2CCc3ccccc3N2C(c2ccc([N+](=O)[O-])c(O)c2)N1Nc1ccccc1 (stereo partly drawn) [ZXD-95] | – | – | – | – | – | inhibition at 11 µM ([4]; Drug concentration 11 μM): 0 to 100%; inhibition at 11 µM ([5]; Drug concentration 11 μM): < 0%; inhibition at 33 µM ([5]; Drug concentration 33 μM): 0 to 100% |
| O=C1[C@H]2CCc3ccccc3N2C(Cc2ccc([N+](=O)[O-])cc2)N1Nc1ccccc1 (stereo partly drawn) [ZXD-100A] | 2000 | – | – | – | – | – |
| O=C1[C@@H]2CCc3ccccc3N2[C@@H](Cc2ccc([N+](=O)[O-])cc2)N1Nc1ccccc1 [ZXD-100B] | 850 | – | – | – | – | – |
| O=C1[C@@H]2CCc3ccccc3N2[C@@H](c2ccccc2)N1Nc1ccc([N+](=O)[O-])cc1 [ZXD-106] | 5200 | – | – | – | – | – |
| O=C1[C@@H]2CCc3ccccc3N2[C@@H](Cc2ccccc2)N1Nc1ccc([N+](=O)[O-])cc1 [ZXD-107A] | 120 | – | – | – | – | inhibition at 11 µM ([4]; Drug concentration 11 μM): > 100%; inhibition at 11 µM ([5]; Drug concentration 11 μM): < 0%; inhibition at 33 µM ([5]; Drug concentration 33 μM): < 0% |
| O=C1[C@@H]2CCc3ccccc3N2[C@@H](c2ccccc2O)N1Nc1ccccc1 [ZXD-120B] | 6500 | – | – | – | – | – |
| O=C1[C@@H]2CCc3ccccc3N2[C@@H](c2ccc(O)cc2)N1c1ccc([N+](=O)[O-])cc1 [ZXD-121] | – | – | – | – | – | inhibition at 11 µM ([4]; Drug concentration 11 μM): > 100%; inhibition at 11 µM ([5]; Drug concentration 11 μM): < 0%; inhibition at 33 µM ([5]; Drug concentration 33 μM): < 0% |
| O=C1[C@@H]2CCc3ccccc3N2[C@@H](Cc2ccc(O)cc2)N1Nc1ccccc1 [ZXD-127B] | 5200 | – | – | – | – | – |
| CC(C)(C)[Si](C)(C)Oc1ccc(C2N(Nc3ccccc3)C(=O)C3CCc4ccccc4N32)cc1 (stereo not drawn) [ZXD-131B] | – | – | – | – | – | inhibition at 11 µM ([4]; Drug concentration 11 μM): < 0%; inhibition at 33 µM ([4]; Drug concentration 33 μM): < 0%; inhibition at 11 µM ([5]; Drug concentration 11 μM): 0 to 100% |
| CC(C)(C)[Si](C)(C)Oc1ccc(C2N(Nc3ccc([N+](=O)[O-])cc3)C(=O)C3CCc4ccccc4N32)cc1 (stereo not drawn) [ZXD-132A] | 640 | – | – | – | – | – |
| O=C1C2CCc3ccccc3N2C(c2ccc(O)cc2)N1Nc1ccc([N+](=O)[O-])cc1 (stereo not drawn) [ZXD-133A] | 19500 | – | – | – | – | – |
| COc1ccc(CC2N(Nc3ccccc3)C(=O)C3CCc4ccccc4N32)cc1OC (stereo not drawn) [ZXD-140] | – | – | – | – | – | inhibition at 11 µM ([4]; Drug concentration 11 μM): 0 to 100%; inhibition at 11 µM ([5]; Drug concentration 11 μM): < 0%; inhibition at 33 µM ([5]; Drug concentration 33 μM): > 100% |
| COc1cc(C2N(Nc3ccccc3)C(=O)C3CCc4ccccc4N32)ccc1O[Si](C)(C)C(C)(C)C (stereo not drawn) [ZXD-142A] | 1600 | – | – | – | – | EC50 [3]: 1560 ± 210 nM |
| CC(C)(C)[Si](C)(C)Oc1cccc(C2N(Nc3ccccc3)C(=O)C3CCc4ccccc4N32)c1 (stereo not drawn) [ZXD-147B] | – | – | – | – | – | inhibition at 11 µM ([4]; Drug concentration 11 μM): > 100%; inhibition at 11 µM ([5]; Drug concentration 11 μM): > 100% |
| CC(C)(C)[Si](C)(C)OCc1ccc(C2N(Nc3ccccc3)C(=O)C3CCc4ccccc4N32)cc1 (stereo not drawn) [ZXD-156B] | – | – | – | – | – | inhibition at 11 µM ([4]; Drug concentration 11 μM): > 100%; inhibition at 11 µM ([5]; Drug concentration 11 μM): > 100% |
| O=C1C2CCc3ccccc3N2C(c2cc3ccccc3s2)N1Nc1ccccc1 (stereo not drawn) [ZXD-178A] | – | – | – | – | – | Anti-ZIKV activity (inhibition rate) ([4]; Drug concentration 11 μM): +++ (+++: Complete suppression); Anti-USUV activity (inhibition rate) ([5]; Drug concentration 11 μM): + (+: Partial suppression) |
| O=C1C2CCc3ccccc3N2[C@@H](c2cc3ccccc3s2)N1Nc1ccccc1 (stereo partly drawn) [ZXD-178B] | – | – | – | – | – | inhibition at 11 µM ([4]; Drug concentration 11 μM): > 100%; inhibition at 11 µM ([5]; Drug concentration 11 μM): 0 to 100% |
| O=C1C2CCc3ccccc3N2[C@@H](c2cccc3nonc23)N1Nc1ccccc1 (stereo partly drawn) [ZXD-181A] | – | – | – | – | – | Anti-ZIKV activity (inhibition rate) ([4]; Drug concentration 11 μM): +++ (+++: Complete suppression); Anti-ZIKV activity (inhibition rate) ([4]; Drug concentration 33 μM): +++ (+++: Complete suppression); Anti-USUV activity (inhibition rate) ([5]; Drug concentration 11 μM): − (−: Inactive); Anti-USUV activity (inhibition rate) ([5]; Drug concentration 33 μM): + (+: Partial suppression) |
| CC(C)(C)[Si](C)(C)Oc1ccc(C2N(Cc3ccccc3)C(=O)C3CCc4ccccc4N32)cc1 (stereo not drawn) [ZXD-241B] | – | – | – | – | – | inhibition at 11 µM ([4]; Drug concentration 11 μM): < 0%; inhibition at 33 µM ([4]; Drug concentration 33 μM): > 100%; inhibition at 11 µM ([5]; Drug concentration 11 μM): < 0%; inhibition at 33 µM ([5]; Drug concentration 33 μM): > 100% |
